In BindingDB's records for doi:10.1016/j.bmcl.2007.06.085 (Merck, 2007):

Target: Substance-P receptor (Homo sapiens, UniProt P25103)
Experiment: Displacement of [3H]SP from human NK1 receptor expressed in CHO cells

Chain of Substance-P receptor (P25103 whole entry): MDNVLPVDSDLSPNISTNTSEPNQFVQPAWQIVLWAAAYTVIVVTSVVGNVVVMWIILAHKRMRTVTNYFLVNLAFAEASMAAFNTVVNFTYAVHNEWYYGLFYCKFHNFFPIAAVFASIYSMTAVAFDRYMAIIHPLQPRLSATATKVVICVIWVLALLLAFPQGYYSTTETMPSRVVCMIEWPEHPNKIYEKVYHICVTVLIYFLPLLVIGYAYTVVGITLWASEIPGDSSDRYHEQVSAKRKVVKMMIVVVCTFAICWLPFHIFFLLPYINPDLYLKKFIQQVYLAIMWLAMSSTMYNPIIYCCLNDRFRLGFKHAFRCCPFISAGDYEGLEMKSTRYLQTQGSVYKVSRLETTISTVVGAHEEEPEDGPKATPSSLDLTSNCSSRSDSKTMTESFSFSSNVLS

IC50: 300 pM
SMILES: C[C@@H](O[C@@H]1CN(C2CC(=O)C(=O)C2)C[C@H]1c1ccc(F)cc1)c1cc(C(F)(F)F)cc(C(F)(F)F)c1 [3-((3S,4R)-3-((R)-1-(3,5-bis(trifluoromethyl)phenyl)ethoxy)-4-(4-fluorophenyl)pyrrolidin-1-yl)-5-hydroxycyclopent-2-enone]
